# Read-outs that look alike come from different tables or passages of the source.
# Assays:
# CLL = test: Compound 1 besylate monotherapy in patients with CLL; type: in vivo
# Solubility = type: physicochemical
# [1] = Environmental stability (heat, acid, base); type: physicochemical
# relapsed/refractory CLL = conditions: cited from earlier work
# [2] = monotherapy, as of Sep. 11, 2012
# [3] = 25 mg for 21 days of every 28-day cycle
structure (smiles),measurement,setting,value
"C=CC(=O)Nc1cccc(Nc2nc(Nc3ccc(OCCOC)cc3)ncc2F)c1.O=S(=O)(O)c1ccccc1 [Compound 1 besylate, N-(3-(5-fluoro-2-(4-(2-methoxyethoxyl)phenylamino)pyrimidin-4-ylamino)phenyl)acrylamide benzenesulfonic acid salt]",patients who experienced early increases in absolute lymphocyte counts (ALC),CLL; [2],28 of 33
same,patients who experienced reductions in lymph node size,CLL; [2],15 of 23
same,patients with CLL who experienced stable disease and continue on treatment,CLL; [2],35 out of 43
same,solubility,"Solubility; ethanol, organic solvent or mixture, read-out: solubility in ethanol",~10 mg/mL
same,solubility,"Solubility; water, read-out: solubility in water",~0.16 mg/mL
same,"environmental instabilities (i.e. heat, acid, base)",[1],no environmental instabilities
"Nc1cccc2c1CN(C1CCC(=O)NC1=O)C2=O (centres unmarked) [lenalidomide, 3-(4-amino-1-oxo-1,3-dihydro-2H-isoindol-2-yl)piperidine-2,6-dione]",Complete Response [CR],relapsed/refractory CLL; [3],18%
same,Partial Response [PR],relapsed/refractory CLL; [3],36%
same,median progression-free survival (PFS) time,relapsed/refractory CLL; [3],19.4 months
same,median time to best response,relapsed/refractory CLL; [3],5.9 months
same,overall response,relapsed/refractory CLL; [3],53%
same,Clinical responses (CR or PR),relapsed/refractory CLL; subjects refractory to fludarabine,30%
same,Clinical responses (CR or PR),relapsed/refractory CLL; subjects with del (11)(q23) and/or del (17)(p13.1) adverse cytogenetics,47%
"C=CC(=O)Nc1cccc(Nc2nc(Nc3ccc(OCCOC)cc3)ncc2F)c1 [Compound 1, N-(3-(5-fluoro-2-(4-(2-methoxyethoxyl)phenylamino)pyrimidin-4-ylamino)phenyl)acrylamide]",maximum tolerated dose (MTD),CLL; single agent,has not yet been reached
